Source: paper PMC4663167 (Insect biochemistry and molecular biology, 2015)
pEC50: −log10 of the molar value.

These compounds were tested against PhumOR2 (odorant receptor) (Pediculus humanus, UniProt A0ACM8QMA3).
Format: cell-based

Question: CC(O)c1ccccc1 (stereo not drawn) [1-phenylethanol] was tested. Which pEC50 did it give?
Answer: 2.89

Question: How did the pEC50 turn out when Cc1cccc(O)c1C [2,3-dimethylphenol] was run?
Answer: 3.99

Question: With CC1CCC(O)CC1 (stereo not drawn) [4-methylcyclohexanol] as the compound, how does the pEC50 read?
Answer: 3.92
